In BindingDB's records for doi:10.1021/acs.jmedchem.0c00249 (China Pharmaceutical University, 2020):

Legend:
[1] = Inhibition of SHP2 E76K mutant in splenocytes derived from JMML patient assessed as reduction in cell proliferation in presence of GM-CSF
[2] = Inhibition of SHP2 E76K mutant in splenocytes derived from JMML patient assessed as reduction in GM-CSF induced colony formation of myeloid blast cells measured after 14 days

IC50 [1]: 3.09 µM
IC50 [2]: 7.24 µM
SMILES: Cc1cc(C)c2[nH]c3nc(SCC(=O)Nc4cccc5ccccc45)nnc3c2c1
